Legend:
bedstraw = assay: Test B pre/postemergence bedstraw; assay type: in vivo, Galium aparine
Procedure, shortened: (§1)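 Herbicidal effect was estimated by eye on a ten-point control scale after plants spent twelve to sixteen days in a greenhouse following soil or foliar treatment. Foliar sprays targeted plants at one to four leaves; all doses were formulated in a non-phytotoxic solvent with surfactant.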

corn = assay: Test B pre/postemergence corn; assay type: in vivo, Zea mays
Procedure, shortened: as §1

purple nutsedge = assay: Test B pre/postemergence purple nutsedge; assay type: in vivo, Cyperus rotundus
Procedure, shortened: as §1

giant foxtail = assay: Test B pre/postemergence giant foxtail; assay type: in vivo, Setaria faberii
Procedure, shortened: as §1

crabgrass = assay: Test B pre/postemergence crabgrass; assay type: in vivo, Digitaria sanguinalis
Procedure, shortened: as §1

rice = assay: Test B flood test rice; assay type: in vivo, Oryza sativa
Procedure, shortened: (§2)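 Read-out is a visual response score from 0 (no effect) to 10 (complete control), assigned by comparison with untreated controls. Treatment was applied at the 2-leaf stage, and plants stayed in the greenhouse for twelve to sixteen days before scoring.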

bamyardgrass = assay: Test B flood test barnyardgrass; assay type: in vivo, Echinochloa crus-galli
Procedure, shortened: as §2

duck salad = assay: Test B flood test duck salad; assay type: in vivo, Heteranthera limosa
Procedure, shortened: as §2

cocklebur = assay: Test B pre/postemergence cocklebur; assay type: in vivo, Xanthium strumarium
Procedure, shortened: as §1

velvetleaf = assay: Test B pre/postemergence velvetleaf; assay type: in vivo, Abutilon theophrasti
Procedure, shortened: as §1

blackgrass = assay: Test B pre/postemergence blackgrass; assay type: in vivo, Alopecurus myosuroides
Procedure, shortened: as §1

rape = assay: Test B pre/postemergence rape; assay type: in vivo, Brassica napus
Procedure, shortened: as §1

soybean = assay: Test B pre/postemergence soybean; assay type: in vivo, Glycine max
Procedure, shortened: as §1

smallflower flatsedge = assay: Test B flood test smallflower flatsedge; assay type: in vivo, Cyperus difformis
Procedure, shortened: as §2

sugar beet = assay: Test B pre/postemergence sugar beet; assay type: in vivo, Beta vulgaris
Procedure, shortened: as §1

wild oat = assay: Test B pre/postemergence wild oat; assay type: in vivo, Avena fatua
Procedure, shortened: as §1

pigweed = assay: Test B pre/postemergence pigweed; assay type: in vivo, Amaranthus retroflexus
Procedure, shortened: as §1

morningglory = assay: Test B pre/postemergence morningglory; assay type: in vivo, Ipomoea hederacea
Procedure, shortened: as §1

wheat = assay: Test B pre/postemergence wheat; assay type: in vivo, Triticum aestivum
Procedure, shortened: as §1

surinam grass = assay: Test B pre/postemergence surinam grass; assay type: in vivo, Brachiaria decumbens
Procedure, shortened: as §1

[1] = Postemergence, Rate 250 g/ha, scale of 0 to 10, 0 is no effect, 10 is complete control
[2] = Preemergence, Rate 62 g/ha, scale of 0 to 10 where 0 is no effect and 10 is complete control
[3] = Preemergence, Rate 125 g/ha, scale of 0 to 10 where 0 is no effect and 10 is complete control
[4] = Preemergence, Rate 500 g/ha, scale of 0 to 10 where 0 is no effect and 10 is complete control
[5] = Postemergence, Rate 62 g/ha, scale 0 to 10, 0 is no effect, 10 is complete control
[6] = Postemergence, Rate 125 g/ha, scale of 0 to 10 where 0 is no effect and 10 is complete control
[7] = Preemergence, Rate 250 g/ha, scale 0 to 10 (0 no effect, 10 complete control)
[8] = Rate 500 g/ha, Postemergence, scale 0 to 10, 0 is no effect, 10 is complete control
[9] = Rate 62 g/ha, flood test species, Pre-emergence, visual evaluation after twelve to sixteen days
[10] = Rate 125 g/ha, under heading Pre-emergence, flood test species, visual evaluation after twelve to sixteen days
[11] = Rate 250 g/ha, Pre-emergence (flood test species), scale 0 to 10, 0 is no effect, 10 is complete control
[12] = Rate 500 g/ha, Pre-emergence section of Table B, 0 to 10 scale (0 no effect, 10 complete control)

SMILES: CC(C)N(C(=O)n1oc(=O)n(CCCC#N)c1=O)c1ccccc1 [Compound 674]
- Bedstraw plant response rating (bedstraw; [1]): 0
- Bedstraw plant response rating (bedstraw; [2]): 0
- Plant response rating, Bedstraw (bedstraw; [3]): 0
- Plant response rating, Bedstraw (bedstraw; [4]): 0
- Plant response rating, Corn (corn; [5]): 0
- Corn plant response rating (corn; [6]): 3
- Corn plant response rating (corn; [1]): 6
- Corn plant response rating (corn; [2]): 2
- Plant response rating, Corn (corn; [3]): 3
- Plant response rating, Corn (corn; [7]): 5
- Plant response rating, Corn (corn; [4]): 8
- Corn plant response rating (corn; [8]): 7
- Plant response rating, Nutsedge (purple nutsedge; [5]): 0
- Nutsedge plant response rating (purple nutsedge; [6]): 3
- Nutsedge plant response rating (purple nutsedge; [2]): 0
- Plant response rating, Nutsedge (purple nutsedge; [3]): 0
- Plant response rating, Nutsedge (purple nutsedge; [4]): 6
- Plant response rating, Giant foxtail (giant foxtail; [5]): 7
- Giant foxtail plant response rating (giant foxtail; [6]): 9
- Giant foxtail plant response rating (giant foxtail; [1]): 9
- Giant foxtail plant response rating (giant foxtail; [2]): 6
- Plant response rating, Giant foxtail (giant foxtail; [3]): 9
- Plant response rating, Giant foxtail (giant foxtail; [4]): 10
- Giant foxtail plant response rating (giant foxtail; [8]): 9
- Plant response rating, Crabgrass (crabgrass; [5]): 6
- Crabgrass plant response rating (crabgrass; [6]): 8
- Crabgrass plant response rating (crabgrass; [1]): 9
- Crabgrass plant response rating (crabgrass; [2]): 8
- Plant response rating, Crabgrass (crabgrass; [3]): 9
- Plant response rating, Crabgrass (crabgrass; [7]): 9
- Plant response rating, Crabgrass (crabgrass; [4]): 9
- Crabgrass plant response rating (crabgrass; [8]): 9
- Plant response rating, Rice (0 to 10 scale, 0 is no effect, 10 is complete control) (rice; [9]): 0
- Rice plant response rating (0 to 10 scale, 0 is no effect, 10 is complete control) (rice; [10]): 0
- Rice plant response rating (rice; [11]): 0
- Rice plant response rating (rice; [12]): 0
- Plant response rating, Barnyardgrass (0 to 10 scale, 0 is no effect, 10 is complete control) (bamyardgrass; [9]): 0
- Barnyardgrass plant response rating (0 to 10 scale, 0 is no effect, 10 is complete control) (bamyardgrass; [10]): 0
- Barnyardgrass plant response rating (bamyardgrass; [11]): 0
- Barnyardgrass plant response rating (bamyardgrass; [12]): 0
- Plant response rating, Ducksalad (0 to 10 scale, 0 is no effect, 10 is complete control) (duck salad; [9]): 0
- Ducksalad plant response rating (0 to 10 scale, 0 is no effect, 10 is complete control) (duck salad; [10]): 0
- Ducksalad plant response rating (duck salad; [11]): 0
- Ducksalad plant response rating (duck salad; [12]): 0
- Plant response rating, Cocklebur (cocklebur; [5]): 0
- Cocklebur plant response rating (cocklebur; [6]): 0
- Cocklebur plant response rating (cocklebur; [1]): 2
- Cocklebur plant response rating (cocklebur; [2]): 0
- Plant response rating, Cocklebur (cocklebur; [3]): 0
- Plant response rating, Cocklebur (cocklebur; [7]): 0
- Plant response rating, Cocklebur (cocklebur; [4]): 0
- Cocklebur plant response rating (cocklebur; [8]): 4
- Plant response rating, Velvetleaf (velvetleaf; [5]): 4
- Velvetleaf plant response rating (velvetleaf; [6]): 6
- Velvetleaf plant response rating (velvetleaf; [2]): 6
- Plant response rating, Velvetleaf (velvetleaf; [3]): 7
- Plant response rating, Velvetleaf (velvetleaf; [4]): 10
- Velvetleaf plant response rating (velvetleaf; [8]): 8
- Plant response rating, Blackgrass (blackgrass; [5]): 4
- Blackgrass plant response rating (blackgrass; [6]): 7
- Blackgrass plant response rating (blackgrass; [1]): 8
- Blackgrass plant response rating (blackgrass; [2]): 6
- Plant response rating, Blackgrass (blackgrass; [3]): 8
- Plant response rating, Blackgrass (blackgrass; [7]): 9
- Plant response rating, Blackgrass (blackgrass; [4]): 9
- Blackgrass plant response rating (blackgrass; [8]): 9
- Plant response rating, Rape (rape; [5]): 0
- Rape plant response rating (rape; [6]): 0
- Rape plant response rating (rape; [2]): 0
- Plant response rating, Rape (rape; [3]): 3
- Plant response rating, Rape (rape; [4]): 8
- Rape plant response rating (rape; [8]): 5
- Plant response rating, Soybean (soybean; [5]): 2
- Soybean plant response rating (soybean; [6]): 3
- Soybean plant response rating (soybean; [2]): 3
- Plant response rating, Soybean (soybean; [3]): 3
- Plant response rating, Soybean (soybean; [4]): 7
- Soybean plant response rating (soybean; [8]): 7
- Plant response rating, S. Flatsedge (0 to 10 scale, 0 is no effect, 10 is complete control) (smallflower flatsedge; [9]): 0
- S. Flatsedge plant response rating (0 to 10 scale, 0 is no effect, 10 is complete control) (smallflower flatsedge; [10]): 0
- S. Flatsedge plant response rating (smallflower flatsedge; [11]): 0
- S. Flatsedge plant response rating (smallflower flatsedge; [12]): 0
- Plant response rating, Sugarbeets (sugar beet; [5]): 0
- Sugarbeets plant response rating (sugar beet; [6]): 0
- Sugarbeets plant response rating (sugar beet; [2]): 2
- Plant response rating, Sugarbeets (sugar beet; [3]): 5
- Plant response rating, Sugarbeets (sugar beet; [4]): 9
- Sugarbeets plant response rating (sugar beet; [8]): 5
- Plant response rating, Wild oats (wild oat; [5]): 0
- Wild oats plant response rating (wild oat; [6]): 0
- Wild oats plant response rating (wild oat; [2]): 1
- Plant response rating, Wild oats (wild oat; [3]): 3
- Plant response rating, Wild oats (wild oat; [4]): 10
- Wild oats plant response rating (wild oat; [8]): 3
- Plant response rating, Redroot pigweed (pigweed; [5]): 0
- Redroot pigweed plant response rating (pigweed; [6]): 3
- Redroot pigweed plant response rating (pigweed; [2]): 7
- Plant response rating, Redroot pigweed (pigweed; [3]): 7
- Plant response rating, Redroot pigweed (pigweed; [4]): 10
- Redroot pigweed plant response rating (pigweed; [8]): 7
- Plant response rating, Morningglory (morningglory; [5]): 2
- Morningglory plant response rating (morningglory; [6]): 2
- Morningglory plant response rating (morningglory; [1]): 10
- Morningglory plant response rating (morningglory; [2]): 0
- Plant response rating, Morningglory (morningglory; [3]): 0
- Plant response rating, Morningglory (morningglory; [4]): 7
- Plant response rating, Wheat (wheat; [5]): 0
- Wheat plant response rating (wheat; [6]): 0
- Wheat plant response rating (wheat; [2]): 0
- Plant response rating, Wheat (wheat; [3]): 5
- Plant response rating, Wheat (wheat; [4]): 8
- Wheat plant response rating (wheat; [8]): 7
- Plant response rating, B. signalgrass (surinam grass; [5]): 3
- B. signalgrass plant response rating (surinam grass; [6]): 5
- B. signalgrass plant response rating (surinam grass; [1]): 8
- B. signalgrass plant response rating (surinam grass; [2]): 6
- Plant response rating, B. signalgrass (surinam grass; [3]): 7
- Plant response rating, B. signalgrass (surinam grass; [7]): 8
- Plant response rating, B. signalgrass (surinam grass; [4]): 8
- B. signalgrass plant response rating (surinam grass; [8]): 8
